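Dose response: 5 concentrations. Exposure: 48 h. Format: 96-well plates. Endpoint: linear interpolation; highest concentration if not reached. Abbreviation: GI50, concentration required for 50% inhibition of growth.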 Calls of active or inactive are those of the source. No stated cut-off is given here; in the data, active = GI50 up to about 1.1 µM and inactive = higher.
Legend:
Assay in all cases: NCI anticancer screen, dose series, 48 h
NCI-H226 = tested on: NCI-H226
HCT-15 = tested on: HCT-15
HCT-116 = tested on: HCT-116
EKVX = tested on: EKVX
RXF 393 = tested on: RXF 393
UACC-62 = tested on: UACC-62
HT-29 = tested on: HT-29
LOX IMVI = tested on: LOX IMVI
K562 = tested on: K562
SN12C = tested on: SN12C
BT-549 = tested on: BT-549
HOP-92 = tested on: HOP-92
OVCAR-5 = tested on: OVCAR-5
RPMI-8226 = tested on: RPMI-8226
SK-OV-3 = tested on: SK-OV-3
OVCAR-3 = tested on: OVCAR-3
NCI-H522 = tested on: NCI-H522
Hs-578T = tested on: Hs-578T
KM12 = tested on: KM12
MDA-MB-231 = tested on: MDA-MB-231

For `C#Cc1nc(N)c2ncn(C3OC(COS(N)(=O)=O)C(O)C3O)c2n1` (stereo not given), the GI50 (NCI-H226) was 0.0158 µM (active), the GI50 (HCT-15) was < 0.0214 µM and the GI50 (HCT-116) was 0.0184 µM (active). The GI50 (EKVX) was 0.262 µM (active), the GI50 (RXF 393) was < 0.0179 µM (active) and the GI50 (UACC-62) was 0.0537 µM (active). For the same compound, the GI50 (HT-29) was 0.0233 µM (active), the GI50 (LOX IMVI) was < 0.0176 µM (active) and the GI50 (K562) was 0.0131 µM (active). The GI50 (SN12C) was 0.0172 µM (active), the GI50 (BT-549) was < 0.01 µM (active) and the GI50 (HOP-92) was < 0.01 µM (active). For the same compound, the GI50 (OVCAR-5) was < 0.0148 µM (active), the GI50 (RPMI-8226) was 0.0172 µM (active) and the GI50 (SK-OV-3) was < 0.01 µM (active). For the same compound, the GI50 (OVCAR-3) was < 0.0194 µM (active), the GI50 (NCI-H522) was < 0.01 µM (active) and the GI50 (Hs-578T) was 0.0379 µM (active). The GI50 (KM12) was < 0.0193 µM (active) and the GI50 (MDA-MB-231) was < 0.0185 µM (active).
With `C[C@]12CC[C@H]3[C@@H](CCC4=C[C@@H](N5CCCC5)CC[C@@]43C)[C@@H]1C/C(=C\c1ccncc1)[C@@H]2O` the GI50 (NCI-H226) was 15.6 µM (inactive), the GI50 (HCT-15) was 8.43 µM and the GI50 (HCT-116) was 7.91 µM (inactive). For the same compound, the GI50 (EKVX) was 15.7 µM (inactive), the GI50 (RXF 393) was 5.16 µM (inactive) and the GI50 (UACC-62) was 15.8 µM (inactive). The GI50 (HT-29) was 0.631 µM (active), the GI50 (LOX IMVI) was 8.57 µM (inactive) and the GI50 (K562) was 3.24 µM (inactive). For the same compound, the GI50 (SN12C) was 14.1 µM (inactive), the GI50 (BT-549) was 18.3 µM (inactive) and the GI50 (HOP-92) was 15.9 µM (inactive). For the same compound, the GI50 (OVCAR-5) was 18 µM (inactive), the GI50 (RPMI-8226) was 4.79 µM (inactive) and the GI50 (SK-OV-3) was 18 µM (inactive). For the same compound, the GI50 (OVCAR-3) was 16.4 µM (inactive), the GI50 (NCI-H522) was 10.3 µM (inactive) and the GI50 (Hs-578T) was 13.8 µM (inactive). For the same compound, the GI50 (KM12) was 9.57 µM (inactive) and the GI50 (MDA-MB-231) was 13.9 µM (inactive).
`COc1ccc2c(c1)CC1C3(CCCCC23)CC[N+]1(C)C` (stereo not given) was tested, and the GI50 (NCI-H226) was > 100 µM (inactive), the GI50 (HCT-15) was > 100 µM and the GI50 (HCT-116) was > 100 µM (inactive). For the same compound, the GI50 (EKVX) was > 100 µM (inactive), the GI50 (RXF 393) was > 100 µM (inactive) and the GI50 (UACC-62) was > 100 µM (inactive). For the same compound, the GI50 (HT-29) was > 100 µM (inactive), the GI50 (LOX IMVI) was > 100 µM (inactive) and the GI50 (K562) was 75.5 µM (inactive). For the same compound, the GI50 (SN12C) was 38.7 µM (inactive), the GI50 (BT-549) was 24.9 µM (inactive) and the GI50 (HOP-92) was 87.5 µM (inactive). For the same compound, the GI50 (OVCAR-5) was > 100 µM (inactive), the GI50 (RPMI-8226) was > 100 µM (inactive) and the GI50 (SK-OV-3) was > 100 µM (inactive). For the same compound, the GI50 (OVCAR-3) was 75.5 µM (inactive), the GI50 (NCI-H522) was 58.9 µM (inactive) and the GI50 (Hs-578T) was > 100 µM (inactive). For the same compound, the GI50 (KM12) was > 100 µM (inactive) and the GI50 (MDA-MB-231) was > 100 µM (inactive).
`Cc1ccc(S(=O)(=O)NC(=O)Nc2cc(Cl)c(S(N)(=O)=O)cc2S(N)(=O)=O)cc1` was tested, and the GI50 (NCI-H226) was > 100 µM (inactive), the GI50 (HCT-15) was > 100 µM and the GI50 (HCT-116) was > 100 µM (inactive). For the same compound, the GI50 (EKVX) was > 100 µM (inactive), the GI50 (RXF 393) was > 100 µM (inactive) and the GI50 (UACC-62) was > 100 µM (inactive). For the same compound, the GI50 (HT-29) was > 100 µM (inactive), the GI50 (LOX IMVI) was > 100 µM (inactive) and the GI50 (K562) was > 100 µM (inactive). For the same compound, the GI50 (SN12C) was > 100 µM (inactive), the GI50 (BT-549) was > 100 µM (inactive) and the GI50 (HOP-92) was > 100 µM (inactive). The GI50 (OVCAR-5) was > 100 µM (inactive), the GI50 (RPMI-8226) was > 100 µM (inactive) and the GI50 (SK-OV-3) was > 100 µM (inactive). The GI50 (OVCAR-3) was > 100 µM (inactive), the GI50 (NCI-H522) was > 100 µM (inactive) and the GI50 (Hs-578T) was > 100 µM (inactive). The GI50 (KM12) was > 100 µM (inactive) and the GI50 (MDA-MB-231) was > 100 µM (inactive).
For `C=C1C(=O)C2=C[C@H]1C[C@H](O)C(=O)[C@]1(C)CCCC(C)(C)[C@H]1C[C@H]2O`, the GI50 (NCI-H226) was 10.5 µM (inactive), the GI50 (HCT-15) was 0.406 µM and the GI50 (HCT-116) was 1.63 µM (inactive). For the same compound, the GI50 (EKVX) was 1.73 µM (inactive), the GI50 (RXF 393) was 0.315 µM (active) and the GI50 (UACC-62) was 1.59 µM (inactive). The GI50 (HT-29) was 1.47 µM (inactive), the GI50 (LOX IMVI) was 0.916 µM (active) and the GI50 (K562) was 0.215 µM (active). The GI50 (SN12C) was 1.77 µM (inactive), the GI50 (BT-549) was 2.16 µM (inactive) and the GI50 (HOP-92) was 1.49 µM (inactive). The GI50 (OVCAR-5) was 1.93 µM (inactive), the GI50 (RPMI-8226) was 0.235 µM (active) and the GI50 (SK-OV-3) was 12.8 µM (inactive). For the same compound, the GI50 (OVCAR-3) was 2.02 µM (inactive), the GI50 (NCI-H522) was 0.0428 µM (active) and the GI50 (Hs-578T) was 2.76 µM (inactive). The GI50 (KM12) was 2.93 µM (inactive) and the GI50 (MDA-MB-231) was 1.32 µM (inactive).
In the case of `O=[N+]([O-])c1cc(C2(N3CCCCC3)CCCCC2)sc1Br`, the GI50 (NCI-H226) is reported as 3.33 µM (inactive), the GI50 (HCT-15) is reported as 5.02 µM and the GI50 (HCT-116) is reported as 11.7 µM (inactive). The GI50 (EKVX) was 9.16 µM (inactive), the GI50 (RXF 393) was 3.66 µM (inactive) and the GI50 (UACC-62) was 11.3 µM (inactive). For the same compound, the GI50 (HT-29) was 3.87 µM (inactive), the GI50 (LOX IMVI) was 2.82 µM (inactive) and the GI50 (K562) was 2.92 µM (inactive). For the same compound, the GI50 (SN12C) was 5.15 µM (inactive), the GI50 (BT-549) was 6.82 µM (inactive) and the GI50 (HOP-92) was 8.81 µM (inactive). The GI50 (OVCAR-5) was 19.5 µM (inactive), the GI50 (RPMI-8226) was 1.74 µM (inactive) and the GI50 (SK-OV-3) was 16.3 µM (inactive). For the same compound, the GI50 (OVCAR-3) was 2.72 µM (inactive), the GI50 (NCI-H522) was 2.14 µM (inactive) and the GI50 (Hs-578T) was 7.05 µM (inactive). The GI50 (KM12) was 6.49 µM (inactive) and the GI50 (MDA-MB-231) was 11 µM (inactive).
With `COc1cccc2c1C(=O)c1c(O)c3c(c(O)c1C2=O)C[C@@](O)(C(C)=O)C[C@@H]3OC1CC(N(Cc2ccccc2)Cc2ccccc2)C(O)C(C)O1` (stereo not given in full) the GI50 (NCI-H226) was 13.1 µM (inactive), the GI50 (HCT-15) was 4.95 µM and the GI50 (HCT-116) was 1.84 µM (inactive). For the same compound, the GI50 (EKVX) was 39.4 µM (inactive), the GI50 (RXF 393) was 30.6 µM (inactive) and the GI50 (UACC-62) was 16.6 µM (inactive). The GI50 (HT-29) was 0.474 µM (active), the GI50 (LOX IMVI) was 5 µM (inactive) and the GI50 (K562) was 3.64 µM (inactive). The GI50 (SN12C) was 8.09 µM (inactive), the GI50 (BT-549) was > 27.5 µM (inactive) and the GI50 (HOP-92) was 17.8 µM (inactive). For the same compound, the GI50 (OVCAR-5) was 20.5 µM (inactive), the GI50 (RPMI-8226) was 4.62 µM (inactive) and the GI50 (SK-OV-3) was 34 µM (inactive). The GI50 (OVCAR-3) was 22.8 µM (inactive), the GI50 (NCI-H522) was 10.4 µM (inactive) and the GI50 (Hs-578T) was 16.9 µM (inactive). For the same compound, the GI50 (KM12) was 13.1 µM (inactive) and the GI50 (MDA-MB-231) was 10.9 µM (inactive).

Source: ChEMBL document CHEMBL1201862, “PubChem BioAssay data set” (2004)
